Measurements as given in US20240108725A1, “METHOD FOR TREATING CANCER AND SYSTEM FOR SAME” (OTSUKA MEDICAL DEVICES CO., LTD, priority 2020, published 2024).

Tested on: C6 cells
Assay: Rate of dead cells after 5-ALA PDT in erythrocyte solution, C6 cells, Example 3
Type: cell-based, rat
Method: C6 cells or human leukemia cell line TL-Oml cells were cultured in 2.5% FBS/F-12K medium (C6 cells) or 10% FBS/RPMI1640 (TL-Oml cells) supplemented with 5-ALA to a final concentration of 0.125 to 0.5 mM in a 5% CO2 incubator at 37° C. for 4 hours. After the culture, the cells were removed with a 0.25% trypsin-EDTA solution, and the collected cells were adjusted to 2×10^7 cells/mL with an erythrocyte solution (a solution in which erythrocytes and PBS were mixed at a ratio of 45:55). The cell suspension thus prepared was injected into a Tygon tube (inner diameter: 0.79 mm), wrapped around a light irradiator, and irradiated with light having a wavelength of 630 nm so that the irradiation energy density was 0.5 to 500 J/cm^2. After the irradiation, an ammonium chloride solution was added to the cell suspension to hemolyze the erythrocytes. Cells before the PDT treatment, after the PDT treatment, and after 24-hour culture were stained with the FITC Annexin V Apoptosis Detection Kit I and the rate of dead cells was analyzed with a flow cytometer.

[1] = 5-ALA 0.125 mM, 20 J/cm^2, 24 hours after irradiation
[2] = 5-ALA 0.125 mM, 20 J/cm^2, immediately after irradiation
[3] = 5-ALA 0.125 mM, 50 J/cm^2, 24 hours after irradiation
[4] = 5-ALA 0.125 mM, 50 J/cm^2, immediately after irradiation
[5] = 5-ALA 0.125 mM, 100 J/cm^2, 24 hours after irradiation
[6] = 5-ALA 0.125 mM, 100 J/cm^2, immediately after irradiation
[7] = 5-ALA 0.125 mM, 400 J/cm^2, 24 hours after irradiation
[8] = 5-ALA 0.125 mM, 400 J/cm^2, immediately after irradiation
[9] = 5-ALA 0.125 mM, 500 J/cm^2, 24 hours after irradiation
[10] = 5-ALA 0.125 mM, 500 J/cm^2, immediately after irradiation
[11] = 5-ALA 0.25 mM, 2.5 J/cm^2, 24 hours after irradiation
[12] = 5-ALA 0.25 mM, 2.5 J/cm^2, immediately after irradiation
[13] = 5-ALA 0.25 mM, 5 J/cm^2, 24 hours after irradiation
[14] = 5-ALA 0.25 mM, 5 J/cm^2, immediately after irradiation
[15] = 5-ALA 0.25 mM, 250 J/cm^2, 24 hours after irradiation
[16] = 5-ALA 0.25 mM, 250 J/cm^2, immediately after irradiation
[17] = 5-ALA 0.25 mM, 300 J/cm^2, 24 hours after irradiation
[18] = 5-ALA 0.25 mM, 300 J/cm^2, immediately after irradiation
[19] = 5-ALA 0.25 mM, 350 J/cm^2, 24 hours after irradiation
[20] = 5-ALA 0.25 mM, 350 J/cm^2, immediately after irradiation
[21] = 5-ALA 0.5 mM, 0.5 J/cm^2, 24 hours after irradiation
[22] = 5-ALA 0.5 mM, 0.5 J/cm^2, immediately after irradiation
[23] = 5-ALA 0.5 mM, 1 J/cm^2, 24 hours after irradiation
[24] = 5-ALA 0.5 mM, 1 J/cm^2, immediately after irradiation
[25] = 5-ALA 0.5 mM, 2.5 J/cm^2, 24 hours after irradiation
[26] = 5-ALA 0.5 mM, 2.5 J/cm^2, immediately after irradiation
[27] = 5-ALA 0.5 mM, 100 J/cm^2, 24 hours after irradiation
[28] = 5-ALA 0.5 mM, 100 J/cm^2, immediately after irradiation
[29] = 5-ALA 0.5 mM, 350 J/cm^2, 24 hours after irradiation
[30] = 5-ALA 0.5 mM, 350 J/cm^2, immediately after irradiation
[31] = 5-ALA 0.5 mM, 400 J/cm^2, 24 hours after irradiation
[32] = 5-ALA 0.5 mM, 400 J/cm^2, immediately after irradiation
[33] = 5-ALA 0.5 mM, 500 J/cm^2, 24 hours after irradiation
[34] = 5-ALA 0.5 mM, 500 J/cm^2, immediately after irradiation

With `NCC(=O)CCC(=O)O` [5-ALA, 5-aminolevulinic acid] the “Annexin V+/PI+ (%)” value [1] was 2%, the “Annexin V+/PI− (%)” value [1] was 3% and the “Annexin V-/PI− (%)” value [1] was 95%. The “Annexin V+/PI+ (%)” value [2] was 2%, the “Annexin V+/PI− (%)” value [2] was 1% and the “Annexin V−/PI− (%)” value [2] was 97%. For the same compound, the “Annexin V+/PI+ (%)” value [3] was 3%, the “Annexin V+/PI− (%)” value [3] was 3% and the “Annexin V-/PI− (%)” value [3] was 94%. For the same compound, the “Annexin V+/PI+ (%)” value [4] was 3%, the “Annexin V+/PI− (%)” value [4] was 1% and the “Annexin V−/PI− (%)” value [4] was 95%. For the same compound, the “Annexin V+/PI+ (%)” value [5] was 4%, the “Annexin V+/PI− (%)” value [5] was 4% and the “Annexin V-/PI− (%)” value [5] was 92%. The “Annexin V+/PI+ (%)” value [6] was 4%, the “Annexin V+/PI− (%)” value [6] was 1% and the “Annexin V−/PI− (%)” value [6] was 95%. The “Annexin V+/PI+ (%)” value [7] was 10%, the “Annexin V+/PI− (%)” value [7] was 5% and the “Annexin V+/PI+ (%)” value [8] was 6%. For the same compound, the “Annexin V+/PI− (%)” value [8] was 1%, the “Annexin V−/PI− (%)” value [8] was 93% and the “Annexin V+/PI+ (%)” value [9] was 27%. For the same compound, the “Annexin V+/PI− (%)” value [9] was 9%, the “Annexin V+/PI+ (%)” value [10] was 17% and the “Annexin V+/PI− (%)” value [10] was 0%. The “Annexin V−/PI− (%)” value [10] was 82%, the “Annexin V+/PI+ (%)” value [11] was 2% and the “Annexin V+/PI− (%)” value [11] was 5%. The “Annexin V−/PI− (%)” value [11] was 93%, the “Annexin V+/PI+ (%)” value [12] was 2% and the “Annexin V+/PI− (%)” value [12] was 1%. The “Annexin V−/PI− (%)” value [12] was 97%, the “Annexin V+/PI+ (%)” value [13] was 5% and the “Annexin V+/PI− (%)” value [13] was 8%. The “Annexin V−/PI− (%)” value [13] was 88%, the “Annexin V+/PI+ (%)” value [14] was 3% and the “Annexin V+/PI− (%)” value [14] was 1%. The “Annexin V−/PI− (%)” value [14] was 96%, the “Annexin V+/PI+ (%)” value [15] was 59% and the “Annexin V+/PI− (%)” value [15] was 8%. The “Annexin V−/PI− (%)” value [15] was 23%, the “Annexin V+/PI+ (%)” value [16] was 70% and the “Annexin V+/PI− (%)” value [16] was 0%. The “Annexin V−/PI− (%)” value [16] was 28%, the “Annexin V+/PI+ (%)” value [17] was 86% and the “Annexin V+/PI− (%)” value [17] was 4%. For the same compound, the “Annexin V−/PI− (%)” value [17] was 10%, the “Annexin V+/PI+ (%)” value [18] was 83% and the “Annexin V+/PI− (%)” value [18] was 0%. The “Annexin V−/PI− (%)” value [18] was 14%, the “Annexin V+/PI+ (%)” value [19] was 96% and the “Annexin V+/PI− (%)” value [19] was 1%. The “Annexin V−/PI− (%)” value [19] was 2%, the “Annexin V+/PI+ (%)” value [20] was 91% and the “Annexin V+/PI− (%)” value [20] was 0%. The “Annexin V−/PI− (%)” value [20] was 6%, the “Annexin V+/PI+ (%)” value [21] was 2% and the “Annexin V+/PI− (%)” value [21] was 3%. For the same compound, the “Annexin V−/PI− (%)” value [21] was 95%, the “Annexin V+/PI+ (%)” value [22] was 3% and the “Annexin V+/PI− (%)” value [22] was 2%. The “Annexin V−/PI− (%)” value [22] was 95%, the “Annexin V+/PI+ (%)” value [23] was 2% and the “Annexin V+/PI− (%)” value [23] was 3%. For the same compound, the “Annexin V−/PI− (%)” value [23] was 95%, the “Annexin V+/PI+ (%)” value [24] was 3% and the “Annexin V+/PI− (%)” value [24] was 1%. The “Annexin V−/PI− (%)” value [24] was 96%, the “Annexin V+/PI+ (%)” value [25] was 4% and the “Annexin V+/PI− (%)” value [25] was 4%. The “Annexin V−/PI− (%)” value [25] was 92%, the “Annexin V+/PI+ (%)” value [26] was 4% and the “Annexin V+/PI− (%)” value [26] was 1%. For the same compound, the “Annexin V−/PI− (%)” value [26] was 94%, the “Annexin V+/PI+ (%)” value [27] was 86% and the “Annexin V+/PI− (%)” value [27] was 6%. The “Annexin V−/PI− (%)” value [27] was 8%, the “Annexin V+/PI+ (%)” value [28] was 81% and the “Annexin V+/PI− (%)” value [28] was 2%. The “Annexin V−/PI− (%)” value [28] was 15%, the “Annexin V+/PI+ (%)” value [29] was 92% and the “Annexin V+/PI− (%)” value [29] was 4%. For the same compound, the “Annexin V−/PI− (%)” value [29] was 3%, the “Annexin V+/PI+ (%)” value [30] was 90% and the “Annexin V+/PI− (%)” value [30] was 0%. The “Annexin V−/PI− (%)” value [30] was 8%, the “Annexin V+/PI+ (%)” value [31] was 96% and the “Annexin V+/PI− (%)” value [31] was 2%. The “Annexin V−/PI− (%)” value [31] was 1%, the “Annexin V+/PI+ (%)” value [32] was 94% and the “Annexin V+/PI− (%)” value [32] was 0%. The “Annexin V−/PI− (%)” value [32] was 5%, the “Annexin V+/PI+ (%)” value [33] was 98% and the “Annexin V+/PI− (%)” value [33] was 2%. For the same compound, the “Annexin V−/PI− (%)” value [33] was 1%, the “Annexin V+/PI+ (%)” value [34] was 97% and the “Annexin V+/PI− (%)” value [34] was 0%. For the same compound, the “Annexin V−/PI− (%)” value [34] was 2%.
